This note sets out measurements from patent publication US20080194020A1, “Methods For Producing Dendritic Cells That Have Acquired Ctl-Inducing Ability” (Medical and Biological Laboratories Co., Ltd., priority 2004, published 2008).

Format in all cases: cell-based, mouse
Assay [1] concerns DC2.4 cells. Briefly: Uptake of antigenic protein into DC2.4 cells. On the procedure:
Next, DC2.4 cells were incubated for a set amount of time with OVA in the presence or absence of lactacystin (LC), and OVA taken up into the cells was measured. OVA taken up into cells in the presence or absence of Hsp90 was measured similarly.

In assay [2] the test system is DC2.4 cells. Kind of assay: Polyubiquitination of antigenic protein taken up by DC2.4 cells (SDS-PAGE, Western blot with anti-polyubiquitin antibody). The settings on record: DC2.4 cells incubated with GST-OVA in the presence or absence of Hsp90. As to the method: There are reports that when the KDEL sequence (Lys-Asp-Glu-Leu) (SEQ ID NO: 3), an endoplasmic reticulum localization sequence, is added to the carboxyl terminus of a protein localized in the ER lumen, the protein is repeatedly transported between the ER and Golgi apparatus, and ERAD of that protein is promoted. Therefore, DC2.4 cells were made to take up OVA with KDEL (SEQ ID NO: 3) added to its C-terminus, and OVA that was polyubiquitinated after uptake was observed by SDS-PAGE and Western blotting. OVA to which a KDEL sequence (SEQ ID NO: 3) was added was constructed and expressed as follows: using a plasmid comprising a DNA sequence encoding OVA as a template, PCR was performed using oligo-1 (SEQ ID NO: 10) and oligo-2 (SEQ ID NO: 11) as primers. The amplified PCR product of approximately 1100 bp was introduced into a pCR-Blunt vector (Invitrogen) to obtain vector-1. Oligo-3 (SEQ ID NO: 12) and oligo-4 (SEQ ID NO: 13) were annealed, and the obtained gene fragment of approximately 100 bp was introduced into the pCR-Blunt vector to obtain vector-2. Vector-2 was digested with SpeI, the obtained gene fragment of approximately 130 bp was introduced into vector-1 that had been digested with NheI to obtain vector-3. An approximately 1250-bp gene fragment (OVA-KDEL) obtained when vector-3 was digested with BamHI/SpeI was introduced into a vector for gene expression, and then expressed. […]
(A western blot detects proteins with antibodies after separation by electrophoresis.)

Assay [3] relates to bone marrow-derived dendritic cells (BMDCs). Kind of assay: MHC class II antigen presentation by BMDCs to OT-II CD4+ T cells (IL-2 ELISA). The settings on record: HSP90 10 μg/mL added at the same time as OVA (0, 50 or 250 μg/mL). On the procedure: Mouse bone marrow-derived dendritic cells (BMDCs) were prepared as follows: cells were taken out from mouse bone marrow and cultured for five days in RPMI medium containing GM-CSF and 5% FCS, during which the medium was partially exchange. This culturing method leads to growth of macrophages, dendritic cells, and such; therefore, dendritic cells alone were collected using CD11c magnetic beads, and these cells were used as bone marrow-derived dendritic cells (BMDCs).
The bone marrow-derived dendritic cells (BMDCs) prepared as above or the mouse dendritic cell line DC2.4 cells were plated in a 96-well plate at 5×10^4 cells per well. Next, in the presence of 50 μg/mL of polynyxin B, which is an endotoxin inhibitor, OVA (0, 50, or 250 μg/mL)and HSP90 (0 or 10 μg/mL) were added, the total fluid volume was adjusted to 200 μL, and this was cultured overnight at 37° C. Since endotoxin is known to activate DCs, polymyxin B was added to eliminate the effects of its contamination of reagents, equipment, and such. After culturing, the aforementioned cells in the wells were washed twice to remove the remaining OVA and HSP90 that were not taken up by the cells. […] The wells were centrifuged, the supernatant was collected, and the amount of IL-2 in the supernatant was measured by ELISA.
(In general: In an ELISA, binding on a coated surface is turned into a signal by an enzyme label.)

The subject of assay [4] is DC2.4 cells. Kind of assay: MHC class I cross-presentation by DC2.4 cells to OT-I CD8+ T cells (IL-2 ELISA). The text has this:
Whether knock-down of cellular components involved in ERAD decreases the cross-presentation of exogenous OVA antigen was examined using a system for evaluating the level of antigen presentation, which uses naive CD8^+ T cells from OT-I mice and DC2.4 cells. The DC2.4 cells used as a model of dendritic cells are of the H-2Kb mouse MHC class I haplotype. OT-I (H-2Kb) mice are transgenic mice expressing a T cell receptor (TCRα and β) that recognizes an antigenic peptide (SIINFEKL) (SEQ ID NO: 15) derived from OVA presented on the H-2Kb molecules. The CD8^+ cells of OT-I mice are activated when they recognize OVA peptides presented by BMDCs derived from H-2Kb mice or by DC2.4 cells. When OVA or bOVA is incubated with and affixed onto DC2.4 cells and the cells are further incubated with naive CD8^+ T cells of OT-I mice, the amount of IL-2 produced by OT-I CD8^+ T cells serves as an index of T-cell stimulation as a result of OVA antigen presented by DC2.4 cells.
Parental or knocked-down DC2.4 cells were pre-incubated in a culture medium supplemented with 50 μg mL^−1 polymyxin B for 30 minutes in the presence or absence of lactacystin or MG-132, and incubated with OVA (250 μg mL^−1) or SIINFEKL peptides (10 ng mL^−1) for six hours. The cells were washed, fixed with 1% paraformaldehyde, and aliquoted into microtiter plates (5×10^4 per well). 5×10^4 CD8^+ T cells purified from splenocytes of OT-1 mice using magnetic beads were added to each well and after a 24-hour incubation, the IL-2 secretion was measured by ELISA (BD Biosciences) in triplicate.
DC2.4 cells were incubated with OVA (0, 50, or 250 μg/mL) in RPMI1640/10c% FCS for six hours at 37° C., in the presence or absence of pig-derived HSP90 (10 μg/mL). After washing away the antigen and HSP, OT-I CD8^+ T cells were added, cells were cultured overnight at 37° C., and the amount of IL-2 comprised in the supernatant was measured by the ELISA method.
The timing of the addition of HSP90 (10 μg/mL) and OVA (250 μg/mL) to DC2.4 cells was varied, and the effect on class I antigen presentation was observed. (i) HSP90 was added first, DC2.4 cells were washed, and then OVA was added. (ii) HSP90 and OVA were added simultaneously to DC2.4 cells. (iii) OVA was added first, and after washing DC2.4 cells, HSP90 was added. The results obtained under these three conditions were compared. As a control for all these conditions, an experiment in which only OVA, but not HSP90, was added was also carried out.
Under condition (i), HSP90 was added to DC2.4 cells, the cells were cultured for 30 minutes and then washed to remove HSP90. Next, OVA was added and the cells were cultured for three hours. Thereafter, OVA was removed by washing, and cells were cultured in just the culture medium for three hours. DC2.4 cells activated with OVA by the above procedure were plated in a 96-well plate, OT-I mouse-derived CD8^+ T cells were added to this, and after culturing overnight, the amount of IL-2 released into the supernatant was measured by ELISA.
Under condition (ii), OVA and HSP90 were added simultaneously to DC2.4 cells, cells were cultured for three hours, then washed, and cultured in just the culture medium for three hours. Thereafter, the procedures to investigate the activation of OT-I mouse-derived CD8^+ T cells was carried out similarly to in (i) above.
Under condition (iii), OVA was first added to DC2.4 cells, cells were cultured for three hours, and then washed to remove OVA. Next, HSP90 was added, and the cells were cultured for another three hours. The procedures that follow were carried out similarly to that of (i) and (ii). Meanwhile, timings were set such that the incubation times during the stage in which cells are in contact with OVA and the stage at which OVA has been taken up were the same under conditions (i) to (iii).

A further assay has as its system BMDCs. Briefly: MHC class I antigen presentation by BMDCs to OT-I CD8+ cells. Conditions: BMDCs incubated with OVA in the presence or absence of HSP90.

“Also recorded” adds a separate entry of the source.

Consider “HSP90: pig-derived HSP90, molecular chaperone (heat shock protein) of about 90 kDa; porcine sequence SEQ ID NO: 1”, for which the “effect on OVA taken up into cells” value in the assay with DC2.4 cells [1] (DC2.4 cells incubated with OVA in the presence or absence of Hsp90 and lactacystin) was “take up OVA into cells more efficiently; also recorded: uptake of OVA increased”. Moreover, the “effect on amount of GST-OVA taken up” value with DC2.4 cells [1] (FIG. 10 lane 4 versus lane 3, presence or absence of HSP90) is on record as “the increase in the amount taken up in the presence of HSP90 is not great”. Moreover, the “effect on polyubiquitination of GST-OVA taken up” value with DC2.4 cells [2] is “the increase in polyubiquitination in the presence of HSP90 is very pronounced”; with DC2.4 cells [2] (listed as Hsp90) it was “more strongly polyubiquitinated”. In assay [3], the “effect on IL-2 production by OT-II CD4+ T cells (MHC class II presentation)” value is given as “not enhanced”. In addition, the “effect on OVA antigen presentation to OT-I CD8+ T cells (IL-2)” value in the assay with DC2.4 cells [4] (DC2.4 cells, OVA 0, 50 or 250 μg/mL, six hours, pig-derived HSP90 10 μg/mL versus OVA alone) is recorded as “a stronger antigen presentation was observed; also recorded: increase antigen presentation”. Further, in the assay on DC2.4 cells [4] (DC2.4 cells, Hsp90 10 μg/mL and 50 μg/mL), the “Hsp90 concentration dependence of antigen presentation ability” value is reported as “increased in an Hsp90 concentration-dependent manner; also recorded: antigen-presenting ability increases in a manner dependent on Hsp90 concentration”. Also, the “effect on IL-2 production versus OVA-only control” value with DC2.4 cells [4] (condition (i): HSP90 added first, cells washed, then OVA) was “cannot be observed unless it is added simultaneously”; with DC2.4 cells [4] (condition (ii): HSP90 10 μg/mL and OVA 250 μg/mL added simultaneously to DC2.4 cells), “increase in the amount of IL-2 production”; in the assay on DC2.4 cells [4] (condition (iii): OVA added first, cells washed, then HSP90), “not to yield any effect”. The “effect on OVA antigen presentation to OT-I CD8+ cells” value in the assay with BMDCs is given as “increase antigen presentation”.
